Laboratory results as given in ChEMBL document CHEMBL1138919, “Binding of methoxy-substituted N1-benzenesulfonylindole analogs at human 5-HT6 serotonin receptors” (Bioorg Med Chem Lett, 2006).

Target: 5-hydroxytryptamine receptor 6 (Homo sapiens, UniProt P50406)
Assay: Binding affinity to human 5HT6 receptor

5-hydroxytryptamine receptor 6, sequence (P50406 whole entry): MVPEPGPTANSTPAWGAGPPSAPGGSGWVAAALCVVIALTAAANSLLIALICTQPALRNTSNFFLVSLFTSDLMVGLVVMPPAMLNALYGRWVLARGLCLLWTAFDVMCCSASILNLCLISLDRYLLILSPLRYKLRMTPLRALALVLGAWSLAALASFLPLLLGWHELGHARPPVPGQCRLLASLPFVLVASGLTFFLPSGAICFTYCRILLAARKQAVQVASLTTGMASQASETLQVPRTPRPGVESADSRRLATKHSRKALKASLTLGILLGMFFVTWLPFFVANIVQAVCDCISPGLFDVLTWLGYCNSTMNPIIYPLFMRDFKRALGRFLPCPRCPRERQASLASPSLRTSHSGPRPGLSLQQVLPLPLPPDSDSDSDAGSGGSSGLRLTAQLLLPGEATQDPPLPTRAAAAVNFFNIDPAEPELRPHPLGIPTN

Ki	SMILES
0.21 µM	COc1cc(OC)c2c3c(n(S(=O)(=O)c4ccc(N)cc4)c2c1)CCCC3
0.205 µM	CNc1ccc2c3c(n(S(=O)(=O)c4ccc(N)cc4)c2c1)CCCC3
0.0008 µM	COc1cc(OC)c2ccn(S(=O)(=O)c3ccc(N)cc3)c2c1
0.165 µM	CNc1cccc2c1c1c(n2S(=O)(=O)c2ccc(N)cc2)CCCC1
0.0018 µM	COc1ccc2ccn(S(=O)(=O)c3ccc(N)cc3)c2c1
0.0033 µM	COc1cccc2c1ccn2S(=O)(=O)c1ccc(N)cc1
